Test results taken from the supplement of paper PMC4862054.

What was measured:
Conditions in all cases: incubation time: 72 h
DU-4475 [1] = assay: drug sensitivity score (DSS), CellTox Green (DSS (AUC-based score)); higher = stronger drug effect (viability inhibition or cytotoxicity); extreme values may be limits of the assay
In short: (§1)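 Using 20 µl of cell suspension per well, breast cancer cell lines were seeded into 384-well plates pre-loaded with compound at 5 concentrations in 10-fold steps across a compound-specific 10,000-fold range. Incubation lasted 72 h, after which CellTox Green fluorescence at 485/520 nm and then CellTiter-Glo luminescence, following 10 min at room temperature, were recorded. Each plate was normalised to 0.1 % DMSO and a positive kill control before the drug sensitivity score was derived from the area under the fitted dose-response curve.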

MFM-223 [2] = assay: as above
In short: as §1

HDQ-P1 = assay: as above
In short: as §1

MCF-10A = assay: as above
In short: as §1

CAL-51 = assay: as above
In short: as §1

MDA-MB-231 [3] = assay: as above
In short: as §1

CAL-85-1 [4] = assay: as above
In short: as §1

Hs578T [5] = assay: as above
In short: as §1

MDA-MB-453 = assay: as above
In short: as §1

BT-549 [6] = assay: as above
In short: as §1

BT-474 [7] = assay: as above
In short: as §1

CAL-148 = assay: as above
In short: as §1

HCC1143 [8] = assay: as above
In short: as §1

HCC1937 [9] = assay: as above
In short: as §1

MDA-MB-436 = assay: as above
In short: as §1

DU-4475 [10] = assay: drug sensitivity score (DSS), CellTiter-Glo (DSS (AUC-based score)); higher = stronger drug effect (viability inhibition or cytotoxicity); extreme values may be limits of the assay
In short: as §1

MFM-223 [11] = assay: as above
In short: as §1

MDA-MB-468 = assay: as above
In short: as §1

MDA-MB-231 [12] = assay: as above
In short: as §1

CAL-85-1 [13] = assay: as above
In short: as §1

Hs578T [14] = assay: as above
In short: as §1

BT-549 [15] = assay: as above
In short: as §1

BT-474 [16] = assay: as above
In short: as §1

HCC1143 [17] = assay: as above
In short: as §1

CAL-120 = assay: as above
In short: as §1

HCC1937 [18] = assay: as above
In short: as §1

HCC1599 = assay: as above
In short: as §1

## CNC(=O)c1cccc(-c2ccc3c(N4CCOC[C@@H]4C)nc(N4CCOC[C@@H]4C)nc3n2)c1 [AZD2014]
DU-4475 [1]
  drug sensitivity score: 0
MFM-223 [2]
  drug sensitivity score: 3.63
HDQ-P1
  drug sensitivity score: 0
MCF-10A
  drug sensitivity score: 0
CAL-51
  drug sensitivity score: 0
MDA-MB-231 [3]
  drug sensitivity score: 0
CAL-85-1 [4]
  drug sensitivity score: 0
Hs578T [5]
  drug sensitivity score: 0
MDA-MB-453
  drug sensitivity score: 0
BT-549 [6]
  drug sensitivity score: 0
BT-474 [7]
  drug sensitivity score: 0
CAL-148
  drug sensitivity score: 11
HCC1143 [8]
  drug sensitivity score: 0
HCC1937 [9]
  drug sensitivity score: 0
MDA-MB-436
  drug sensitivity score: 0
DU-4475 [10]
  drug sensitivity score: 7.74
MFM-223 [11]
  drug sensitivity score: 15.7
MDA-MB-468
  drug sensitivity score: 11.4
MDA-MB-231 [12]
  drug sensitivity score: 8.36
CAL-85-1 [13]
  drug sensitivity score: 13.2
Hs578T [14]
  drug sensitivity score: 11.4
BT-549 [15]
  drug sensitivity score: 15.3
BT-474 [16]
  drug sensitivity score: 8.78
HCC1143 [17]
  drug sensitivity score: 12.7
CAL-120
  drug sensitivity score: 14.9
HCC1937 [18]
  drug sensitivity score: 9.48
HCC1599
  drug sensitivity score: 0.92

## COc1cc2/c(=N/c3ccc(Br)cc3F)nc[nH]c2cc1OCC1CCN(C)CC1 [Vandetanib]
DU-4475 [1]
  drug sensitivity score: 0
MFM-223 [2]
  drug sensitivity score: 0
HDQ-P1
  drug sensitivity score: 1.32
MCF-10A
  drug sensitivity score: 0
CAL-51
  drug sensitivity score: 0
MDA-MB-231 [3]
  drug sensitivity score: 3.15
CAL-85-1 [4]
  drug sensitivity score: 0
Hs578T [5]
  drug sensitivity score: 0
MDA-MB-453
  drug sensitivity score: 0
BT-549 [6]
  drug sensitivity score: 0
BT-474 [7]
  drug sensitivity score: 0
CAL-148
  drug sensitivity score: 0
HCC1143 [8]
  drug sensitivity score: 0
HCC1937 [9]
  drug sensitivity score: 0
MDA-MB-436
  drug sensitivity score: 0
DU-4475 [10]
  drug sensitivity score: 0
MFM-223 [11]
  drug sensitivity score: 0.335
MDA-MB-468
  drug sensitivity score: 4.76
MDA-MB-231 [12]
  drug sensitivity score: 0
CAL-85-1 [13]
  drug sensitivity score: 0
Hs578T [14]
  drug sensitivity score: 0
BT-549 [15]
  drug sensitivity score: 0
BT-474 [16]
  drug sensitivity score: 3.47
HCC1143 [17]
  drug sensitivity score: 0
CAL-120
  drug sensitivity score: 0.197
HCC1937 [18]
  drug sensitivity score: 0
HCC1599
  drug sensitivity score: 0

## C=C1C[C@@H]2[C@H](CC[C@]3(C)C(=O)CC[C@@H]23)[C@@]2(C)C=CC(=O)C=C12 [Exemestane]
DU-4475 [1]
  drug sensitivity score: 0
MFM-223 [2]
  drug sensitivity score: 0
HDQ-P1
  drug sensitivity score: 3.28
MCF-10A
  drug sensitivity score: 0
CAL-51
  drug sensitivity score: 0
MDA-MB-231 [3]
  drug sensitivity score: 0
CAL-85-1 [4]
  drug sensitivity score: 1.08
Hs578T [5]
  drug sensitivity score: 0
MDA-MB-453
  drug sensitivity score: 0
BT-549 [6]
  drug sensitivity score: 0
BT-474 [7]
  drug sensitivity score: 0
CAL-148
  drug sensitivity score: 0
HCC1143 [8]
  drug sensitivity score: 0
HCC1937 [9]
  drug sensitivity score: 0
MDA-MB-436
  drug sensitivity score: 0
DU-4475 [10]
  drug sensitivity score: 0
MFM-223 [11]
  drug sensitivity score: 0
MDA-MB-468
  drug sensitivity score: 0
MDA-MB-231 [12]
  drug sensitivity score: 0
CAL-85-1 [13]
  drug sensitivity score: 0
Hs578T [14]
  drug sensitivity score: 0
BT-549 [15]
  drug sensitivity score: 0
BT-474 [16]
  drug sensitivity score: 0
HCC1143 [17]
  drug sensitivity score: 0
CAL-120
  drug sensitivity score: 0
HCC1937 [18]
  drug sensitivity score: 0
HCC1599
  drug sensitivity score: 0

## CNC(=O)c1ccc(N2C(=S)N(c3ccc(C#N)c(C(F)(F)F)c3)C(=O)C2(C)C)cc1F [Enzalutamide]
DU-4475 [1]
  drug sensitivity score: 0
MFM-223 [2]
  drug sensitivity score: 0
HDQ-P1
  drug sensitivity score: 0
MCF-10A
  drug sensitivity score: 0
CAL-51
  drug sensitivity score: 0
MDA-MB-231 [3]
  drug sensitivity score: 0
CAL-85-1 [4]
  drug sensitivity score: 0
Hs578T [5]
  drug sensitivity score: 0
MDA-MB-453
  drug sensitivity score: 0
BT-549 [6]
  drug sensitivity score: 0
BT-474 [7]
  drug sensitivity score: 0
CAL-148
  drug sensitivity score: 0
HCC1143 [8]
  drug sensitivity score: 0
HCC1937 [9]
  drug sensitivity score: 0
MDA-MB-436
  drug sensitivity score: 0
DU-4475 [10]
  drug sensitivity score: 0
MFM-223 [11]
  drug sensitivity score: 0
MDA-MB-468
  drug sensitivity score: 0
MDA-MB-231 [12]
  drug sensitivity score: 0
CAL-85-1 [13]
  drug sensitivity score: 0
Hs578T [14]
  drug sensitivity score: 0
BT-549 [15]
  drug sensitivity score: 0
BT-474 [16]
  drug sensitivity score: 0
HCC1143 [17]
  drug sensitivity score: 0
CAL-120
  drug sensitivity score: 0
HCC1937 [18]
  drug sensitivity score: 0
HCC1599
  drug sensitivity score: 0

## COc1cc(O)c2c(c1)/C=C/C[C@H](O)[C@H](O)C(=O)/C=C\C[C@H](C)OC2=O [(5Z)-7-Oxozeaenol]
DU-4475 [1]
  drug sensitivity score: 4.86
MFM-223 [2]
  drug sensitivity score: 8.77
HDQ-P1
  drug sensitivity score: 0
MCF-10A
  drug sensitivity score: 0
CAL-51
  drug sensitivity score: 1.06
MDA-MB-231 [3]
  drug sensitivity score: 9.09
CAL-85-1 [4]
  drug sensitivity score: 18.5
Hs578T [5]
  drug sensitivity score: 8.72
MDA-MB-453
  drug sensitivity score: 0
BT-549 [6]
  drug sensitivity score: 0
BT-474 [7]
  drug sensitivity score: 1.65
CAL-148
  drug sensitivity score: 16.9
HCC1143 [8]
  drug sensitivity score: 0
HCC1937 [9]
  drug sensitivity score: 18.1
MDA-MB-436
  drug sensitivity score: 0
DU-4475 [10]
  drug sensitivity score: 20
MFM-223 [11]
  drug sensitivity score: 5.76
MDA-MB-468
  drug sensitivity score: 9.6
MDA-MB-231 [12]
  drug sensitivity score: 9.42
CAL-85-1 [13]
  drug sensitivity score: 12.4
Hs578T [14]
  drug sensitivity score: 5.42
BT-549 [15]
  drug sensitivity score: 14
BT-474 [16]
  drug sensitivity score: 7.43
HCC1143 [17]
  drug sensitivity score: 2
CAL-120
  drug sensitivity score: 4.12
HCC1937 [18]
  drug sensitivity score: 5.41
HCC1599
  drug sensitivity score: 3.26

## CCOC(=O)CCNc1cc(N2CCc3ccccc3CC2)nc(-c2ccccn2)n1 [GSK-J4]
DU-4475 [1]
  drug sensitivity score: 2.65
MFM-223 [2]
  drug sensitivity score: 8.73
HDQ-P1
  drug sensitivity score: 11.6
MCF-10A
  drug sensitivity score: 8.52
CAL-51
  drug sensitivity score: 11.4
MDA-MB-231 [3]
  drug sensitivity score: 11.1
CAL-85-1 [4]
  drug sensitivity score: 16.5
Hs578T [5]
  drug sensitivity score: 20.6
MDA-MB-453
  drug sensitivity score: 7.34
BT-549 [6]
  drug sensitivity score: 7.69
BT-474 [7]
  drug sensitivity score: 19
CAL-148
  drug sensitivity score: 10.9
HCC1143 [8]
  drug sensitivity score: 18.6
HCC1937 [9]
  drug sensitivity score: 7.05
MDA-MB-436
  drug sensitivity score: 7.09
DU-4475 [10]
  drug sensitivity score: 13.5
MFM-223 [11]
  drug sensitivity score: 12.5
MDA-MB-468
  drug sensitivity score: 19.9
MDA-MB-231 [12]
  drug sensitivity score: 14
CAL-85-1 [13]
  drug sensitivity score: 15.1
Hs578T [14]
  drug sensitivity score: 10.4
BT-549 [15]
  drug sensitivity score: 22.2
BT-474 [16]
  drug sensitivity score: 12.1
HCC1143 [17]
  drug sensitivity score: 12.5
CAL-120
  drug sensitivity score: 10.7
HCC1937 [18]
  drug sensitivity score: 12
HCC1599
  drug sensitivity score: 12.1
